These are literature values, as cited in patent US7473787B2, “Bicyclic [3.1.0] derivatives as glycine transporter inhibitors” (Pfizer Inc, priority 2003, dated 2009).

The series deals with NMDA receptor. To be noted: effect blocked by a specific NMDA-site antagonist and a glycine-site antagonist.

As for `CN(CCC(Oc1ccc(-c2ccccc2)cc1)c1ccc(F)cc1)CC(=O)O` (stereo not shown) [NFPS], the “effect on postsynaptic current driven by the NMDA receptor” value is “increased the postsynaptic current”.
